# Measured values: PMC10117910, “Recombinant production, purification, and biochemical characterization of a novel L-lactate dehydrogenase from Bacillus cereus NRC1 and inhibition study of mangiferin” (Frontiers in Bioengineering and Biotechnology, 2023)
# Legend:
# [1] = target: T1, L-lactate dehydrogenase (Bc-LDH) (Bacillus cereus, UniProt Q81EP4); test: LDH activity assay (NADH absorbance at […] nm) of purified enzyme; Lineweaver-Burk and Dixon plots; type: biochemical
# T1 construct: gene ldh1; full-length, 314 amino acids (GenBank BDI00612.1), recombinant from pET28-Bc-LDH in E. coli BL21 (DE3)
# T1 sequence (Q81EP4 whole entry): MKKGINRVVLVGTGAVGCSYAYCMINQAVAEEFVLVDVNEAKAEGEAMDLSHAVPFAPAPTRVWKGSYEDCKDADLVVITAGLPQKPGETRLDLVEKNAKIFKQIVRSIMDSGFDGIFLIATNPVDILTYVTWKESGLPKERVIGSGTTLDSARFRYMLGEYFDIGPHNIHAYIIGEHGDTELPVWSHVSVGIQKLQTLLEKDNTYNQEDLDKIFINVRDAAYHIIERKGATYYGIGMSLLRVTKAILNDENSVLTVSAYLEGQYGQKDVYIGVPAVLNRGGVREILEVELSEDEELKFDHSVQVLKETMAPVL
# [2] = target: Bacillus cereus NRC1 L-lactate dehydrogenase (Bacillus cereus NRC1) (UniProt P0A392); test: SEC; gel filtration on a calibrated Sephacryl S-300 column (142 cm × 1.75 cm i.d.), eluted with 0.02 M phosphate buffer pH 7.5; native mass compared with the subunit mass by SDS-PAGE (35 kDa)
compound,measurement,setting,value
"O=c1c2cc(O)c(O)cc2oc2cc(O)c([C@@H]3O[C@H](CO)[C@@H](O)[C@H](O)[C@H]3O)c(O)c12 [mangiferin, 2-β-D-glucopyranosyl-1,3,6,7-tetrahydroxy-9H-xanthen-9-one]",Ki,[1],75 µM
Bacillus cereus NRC1 L-lactate dehydrogenase (from UniProt P0A392 1-366) (enzyme),stoichiometry N,[2],4
